Experimental data taken from PMC7366380, “Discovery of a Potent and Selective Covalent Inhibitor and Activity-Based Probe for the Deubiquitylating Enzyme UCHL1, with Antifibrotic Activity” (Journal of the American Chemical Society, 2020).

How the values were obtained:
Cezanne1 = biological target: T1, Cezanne1 (Homo sapiens, UniProt Q6GQQ9); experiment: Biochemical DUB selectivity profiling assay: Cezanne1; settings: Ub-Lys-TAMRA 50 nM, buffer B; read-out: Biochemical IC50 range, Cezanne1
T1 sequence (Q6GQQ9 1-843): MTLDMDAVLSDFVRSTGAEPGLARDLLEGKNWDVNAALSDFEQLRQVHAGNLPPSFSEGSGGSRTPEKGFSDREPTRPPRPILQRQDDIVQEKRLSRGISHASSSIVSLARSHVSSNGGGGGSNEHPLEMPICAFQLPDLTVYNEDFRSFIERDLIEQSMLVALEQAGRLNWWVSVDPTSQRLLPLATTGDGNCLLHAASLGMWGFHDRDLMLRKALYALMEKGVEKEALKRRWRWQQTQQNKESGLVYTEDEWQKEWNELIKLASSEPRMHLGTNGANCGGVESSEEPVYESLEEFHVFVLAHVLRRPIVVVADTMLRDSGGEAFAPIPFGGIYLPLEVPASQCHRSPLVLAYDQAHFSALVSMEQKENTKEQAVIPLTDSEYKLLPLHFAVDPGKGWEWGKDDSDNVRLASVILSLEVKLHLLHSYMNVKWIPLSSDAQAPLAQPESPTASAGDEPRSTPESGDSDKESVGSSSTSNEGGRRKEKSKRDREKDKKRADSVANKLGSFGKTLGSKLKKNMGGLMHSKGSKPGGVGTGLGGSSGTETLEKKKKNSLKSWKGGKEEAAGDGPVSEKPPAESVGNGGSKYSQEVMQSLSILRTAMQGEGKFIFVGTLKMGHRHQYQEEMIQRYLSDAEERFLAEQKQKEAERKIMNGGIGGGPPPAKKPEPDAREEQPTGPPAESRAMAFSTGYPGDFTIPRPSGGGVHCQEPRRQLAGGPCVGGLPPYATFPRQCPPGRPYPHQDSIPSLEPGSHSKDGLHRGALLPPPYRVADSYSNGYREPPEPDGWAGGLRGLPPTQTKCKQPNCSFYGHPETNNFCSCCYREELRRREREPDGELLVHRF
Experimental: (§1) DUB Assay Substrate Substrate
(§2) Buffer Concentration (nM) […]
(§3) Sepharose® 4B resin (GE Healthcare).
(§4) 10 kDa molecular weight cut-off (MWCO)).
(§5) Fractions containing protein
(§6) Protein concentration was […]
(§7) reaction volume of 21 μL. […]
(§8) compound (final concentration 5 nM).
(§9) IC50 values were determined
(§10) Biochemical DUB selectivity profiling assays […]
(§11) in 40 µL total reaction volume.

UCHL5 = biological target: T2, UCHL5 (Homo sapiens, UniProt Q9Y5K5); experiment: biochemical
T2 sequence (Q9Y5K5 1-329): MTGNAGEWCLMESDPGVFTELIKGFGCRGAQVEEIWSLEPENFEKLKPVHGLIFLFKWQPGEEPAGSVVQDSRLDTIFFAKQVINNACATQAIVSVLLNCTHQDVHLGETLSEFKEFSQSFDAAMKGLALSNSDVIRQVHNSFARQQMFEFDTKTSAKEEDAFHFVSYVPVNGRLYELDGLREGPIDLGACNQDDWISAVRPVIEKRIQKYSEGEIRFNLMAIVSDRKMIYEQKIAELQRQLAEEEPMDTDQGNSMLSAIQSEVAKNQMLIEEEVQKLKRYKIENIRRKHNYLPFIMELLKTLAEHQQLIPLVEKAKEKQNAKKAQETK

USP1 = USP1 (Homo sapiens, UniProt O94782); experiment: biochemical
USP1, sequence (O94782 whole entry, species assumed): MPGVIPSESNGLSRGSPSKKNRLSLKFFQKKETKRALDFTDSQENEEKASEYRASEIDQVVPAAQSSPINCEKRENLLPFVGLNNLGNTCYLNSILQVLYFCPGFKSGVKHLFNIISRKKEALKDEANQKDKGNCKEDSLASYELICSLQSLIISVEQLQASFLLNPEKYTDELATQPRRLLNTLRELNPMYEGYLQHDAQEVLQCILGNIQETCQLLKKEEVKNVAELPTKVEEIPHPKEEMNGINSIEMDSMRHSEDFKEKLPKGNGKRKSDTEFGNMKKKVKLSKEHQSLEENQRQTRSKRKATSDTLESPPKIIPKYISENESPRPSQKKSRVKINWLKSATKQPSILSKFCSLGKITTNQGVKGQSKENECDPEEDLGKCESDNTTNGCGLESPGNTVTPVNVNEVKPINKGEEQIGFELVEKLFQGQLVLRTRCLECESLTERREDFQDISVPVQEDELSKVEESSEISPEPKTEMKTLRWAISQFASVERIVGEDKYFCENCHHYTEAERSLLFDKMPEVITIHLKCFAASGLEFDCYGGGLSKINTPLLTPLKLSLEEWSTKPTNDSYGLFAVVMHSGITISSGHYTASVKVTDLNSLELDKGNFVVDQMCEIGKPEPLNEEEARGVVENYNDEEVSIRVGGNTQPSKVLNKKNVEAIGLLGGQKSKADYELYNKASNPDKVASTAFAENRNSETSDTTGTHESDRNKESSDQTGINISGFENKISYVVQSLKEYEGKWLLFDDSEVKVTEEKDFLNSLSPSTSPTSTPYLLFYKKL
USP1, sequence (Q8TAF3 whole entry partner, species assumed): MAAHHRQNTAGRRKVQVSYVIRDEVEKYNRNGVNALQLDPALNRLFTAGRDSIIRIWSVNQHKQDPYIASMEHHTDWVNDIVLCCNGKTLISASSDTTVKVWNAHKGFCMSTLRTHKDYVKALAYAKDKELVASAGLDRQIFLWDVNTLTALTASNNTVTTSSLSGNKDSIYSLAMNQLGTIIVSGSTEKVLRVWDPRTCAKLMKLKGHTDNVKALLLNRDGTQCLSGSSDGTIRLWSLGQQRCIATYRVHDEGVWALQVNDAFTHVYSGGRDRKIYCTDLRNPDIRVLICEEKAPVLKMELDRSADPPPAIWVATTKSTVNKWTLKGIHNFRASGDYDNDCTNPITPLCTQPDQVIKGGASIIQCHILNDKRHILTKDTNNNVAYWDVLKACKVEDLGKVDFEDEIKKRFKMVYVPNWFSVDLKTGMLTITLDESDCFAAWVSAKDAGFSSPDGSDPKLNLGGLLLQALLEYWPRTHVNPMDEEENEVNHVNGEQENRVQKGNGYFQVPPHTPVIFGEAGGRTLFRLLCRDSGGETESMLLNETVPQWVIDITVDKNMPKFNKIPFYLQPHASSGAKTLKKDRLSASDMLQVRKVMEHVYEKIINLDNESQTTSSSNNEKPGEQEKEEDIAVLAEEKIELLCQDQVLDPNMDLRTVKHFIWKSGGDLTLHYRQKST

[1] = FMT assay, cell number (DAPI nuclei count); settings: human
USP28 = biological target: T3, USP28 (Homo sapiens, UniProt Q96RU2); experiment: Biochemical DUB selectivity profiling assay: USP28; settings: Ub-Lys-TAMRA 50 nM, buffer B; read-out: Biochemical IC50 range, USP28
T3 sequence (Q96RU2 1-1077): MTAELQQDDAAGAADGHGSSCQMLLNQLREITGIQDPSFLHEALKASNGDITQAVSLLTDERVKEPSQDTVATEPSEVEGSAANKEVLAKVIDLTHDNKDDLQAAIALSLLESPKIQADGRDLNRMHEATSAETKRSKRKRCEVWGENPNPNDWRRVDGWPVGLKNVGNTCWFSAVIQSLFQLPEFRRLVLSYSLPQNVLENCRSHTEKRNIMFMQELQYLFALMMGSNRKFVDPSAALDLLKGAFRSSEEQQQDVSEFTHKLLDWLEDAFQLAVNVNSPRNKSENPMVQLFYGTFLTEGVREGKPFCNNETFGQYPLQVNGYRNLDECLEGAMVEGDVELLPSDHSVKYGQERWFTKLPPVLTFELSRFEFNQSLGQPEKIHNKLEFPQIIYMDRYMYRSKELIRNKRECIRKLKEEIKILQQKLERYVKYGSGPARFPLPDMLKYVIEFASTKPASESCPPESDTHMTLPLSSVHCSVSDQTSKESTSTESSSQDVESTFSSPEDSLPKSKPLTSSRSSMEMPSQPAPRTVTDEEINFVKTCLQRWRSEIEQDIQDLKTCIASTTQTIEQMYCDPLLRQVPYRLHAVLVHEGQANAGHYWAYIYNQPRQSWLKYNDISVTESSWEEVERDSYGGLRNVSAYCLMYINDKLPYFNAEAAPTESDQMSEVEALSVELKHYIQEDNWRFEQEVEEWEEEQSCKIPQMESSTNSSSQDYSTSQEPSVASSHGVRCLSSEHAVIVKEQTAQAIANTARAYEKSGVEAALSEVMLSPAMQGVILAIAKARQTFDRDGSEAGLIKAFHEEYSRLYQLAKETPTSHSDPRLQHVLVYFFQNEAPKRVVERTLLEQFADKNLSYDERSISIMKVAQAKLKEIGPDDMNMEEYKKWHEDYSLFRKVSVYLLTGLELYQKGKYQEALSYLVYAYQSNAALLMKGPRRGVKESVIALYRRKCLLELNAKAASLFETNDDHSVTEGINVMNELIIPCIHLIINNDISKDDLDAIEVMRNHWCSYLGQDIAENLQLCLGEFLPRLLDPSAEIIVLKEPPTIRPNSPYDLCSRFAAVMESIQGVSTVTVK
Experimental: as §1, §2, §3, §4, §5, §6, §7, §8, §9, §10, §11

IC50 (Cezanne1) | IC50 (UCHL5) | IC50 (USP1) | EC50 at 3 days [1] | IC50 (USP28) | Structure (SMILES)
> 10 µM | > 10 µM | > 10 µM | ~11 µM | > 10 µM | N#CN1CCC[C@H]1C(=O)N1CCc2c(-c3c[nH]c4ncccc34)cccc21 [Compound 1]
> 10 µM |  |  | ~11 µM | > 10 µM | C#Cc1cnc2[nH]cc(-c3cccc4c3CCN4C(=O)[C@@H]3CCCN3C#N)c2c1 [Compound 2]
> 10 µM | > 10 µM | > 10 µM | ~23 µM |  | N#CN1CCC[C@@H]1C(=O)N1CCc2c(-c3c[nH]c4ncccc34)cccc21 [Compound 3]

Structure (SMILES) | IC50 (Cezanne1) | IC50 (UCHL5) | IC50 (USP1) | EC50 at 3 days [1] | IC50 (USP28)
CC(=O)O/N=C1\C(=O)N(Cc2cc(Cl)ccc2Cl)c2ccc(Cl)cc21 [LDN-57444, reference compound] | > 10 µM | > 10 µM | > 10 µM |  | > 10 µM
